Measurements reported in patent US10485844B2, “Methods for treating severe atopic dermatitis by administering an IL-4R inhibitor” (Regeneron Pharmaceuticals, Inc., priority 2016, dated 2019).

System: CYP3A
Test: Effect of dupilumab on PK of CYP substrate cocktail: midazolam
Details: oral cocktail before (Day 1) and during dupilumab 300 mg weekly (Day 36); n = 13
Procedure: Subcutaneous dupilumab was administered as a 600 mg loading dose on Day 8, followed by a weekly dose of 300 mg from Day 15 to Day 50. PK parameters included Geometric Mean Ratios (GMR) of AUClast (area under the plasma concentration-time curve from time zero to the time of the last quantifiable concentration) and Cmax (maximum observed plasma concentration) measured at Day 1 and Day 36, while efficacy assessments included changes in Eczema Area and Severity Index (EASI) scores (scale 0-72).

In the case of `Cc1ncc2n1-c1ccc(Cl)cc1C(c1ccccc1F)=NC2` [midazolam, reference compound], the “Geometric Mean Ratio (Day 36/Day 1), AUClast” value is reported as 0.98 and the “Geometric Mean Ratio (Day 36/Day 1), Cmax” value is reported as 1.13.
